Laboratory results published in patent US20260306680A1, “RADIOLABELED COMPOUNDS TARGETING THE PROSTATE-SPECIFIC MEMBRANE ANTIGEN” (PROVINCIAL HEALTH SERVICES AUTHORITY, priority 2022, published 2026).
Read-outs that look alike come from different tables or passages of the source.

Experiments:
[1] = Ex vivo biodistribution in mice bearing LNCaP tumor xenografts; design: species or system mouse (male NOD-scid IL2Rg^null (NSG)); conditions: mouse, iv, mean ± SD
Description: (§1) All imaging and biodistribution studies used male NOD-scid IL2Rg^null (NSG) mice and conducted according to the guidelines established by the Canadian Council on Animal Care and approved by Animal Ethics Committee of the University of British Columbia. For tumor inoculations, mice were anesthetized via inhalation of 2% isoflurane in oxygen and implanted subcutaneously with 5×10^6 LNCaP cells below the left shoulder. Imaging and biodistribution studies were performed only after tumors grew to 5-8 mm in diameter.
(§2) For PET/CT imaging studies, approximately 5 MBq of the ^18F-labeled tracer was injected through the tail vein. While for ex vivo biodistribution studies, mice were injected with around 2 MBq of the ^18F-labeled tracer through the tail vein. Mice were allowed to recover and roam freely in the cages after injecting the tracer. At 45 min post-injection, imaging mouse were sedated again and positioned on the scanner. A 10 min CT scan was conducted first to allow for localization and attenuation correction for later reconstruction of PET images. A 10 min PET image was acquired following CT scan. Heating pads were used during the entire procedure to keep the mice warm and circulate the blood. At 1 h post-injection, all mice for biodistribution study were euthanized with blood drawn from heart, and all tissues of interest were collected, rinsed with PBS, blotted dry, weighed, and counted using an automated gamma counter. The uptake in each organ/tissue was normalized to the injected dose and expressed as the percentage of the injected dose per gram of tissue (% ID/g).
(§3) Representative maximum intensity projection PET images of ^18F-KLF1007-pyridine-BF3 and ^18F-KL01040 acquired at 1 h post-injection from LNCaP tumor-bearing mice is enumerated in Table 4 and shown in FIG. 1. Representative maximum intensity projection PET images of ^18F-KL01120 and ^18F-KL01130 acquired at 1 h post-injection from LNCaP tumor-bearing mice is also enumerated in Table 5 and shown in FIG. 2 (^18F-KL1120) and enumerated in Table 6 and shown in FIG. 3 (^18F-KL01130).

LNCaP tumor xenografts = assay: as above; design: species or system mouse (male NOD-scid IL2Rg^null (NSG)); conditions: mean ± SD
Description: as §1, §2, §3

[2] = 1 h Blocked (co-injection of 2-PMPA, 0.5 mg)

O=C(O)CCC[C@H](NC(=O)N[C@@H](CCCCNC(=O)[C@H](Cc1c2ccccc2cc2ccccc12)NC(=O)[C@H]1CC[C@H](CNC(=O)CNC(=O)[C@H](CCCCNC(=O)c2ccc(F)nc2)NC(=O)CN(CC(=O)O)CC(=O)O)CC1)C(=O)O)C(=O)O [^18F-KL01130]
tissue uptake at 1 h ([1]; adrenal glands, 1 h Blocked (co-injection of 2-PMPA, 0.5 mg), read-out: Adrenal Glands uptake): 0.39 ± 0.17 %ID/g
tissue uptake at 1 h ([1]; adrenal glands, 1 h post-injection, read-out: Adrenal Glands uptake): 0.59 ± 0.06 %ID/g
tissue uptake at 1 h ([1]; blood, 1 h Blocked (co-injection of 2-PMPA, 0.5 mg), read-out: Blood uptake): 1.78 ± 0.12 %ID/g
tissue uptake at 1 h ([1]; blood, 1 h post-injection, read-out: Blood uptake): 1.2 ± 0.26 %ID/g
tissue uptake at 1 h ([1]; bone, 1 h Blocked (co-injection of 2-PMPA, 0.5 mg), read-out: Bone uptake): 0.57 ± 0.16 %ID/g
tissue uptake at 1 h ([1]; bone, 1 h post-injection, read-out: Bone uptake): 0.52 ± 0.17 %ID/g
tissue uptake at 1 h ([1]; brain, 1 h Blocked (co-injection of 2-PMPA, 0.5 mg), read-out: Brain uptake): 0.04 %ID/g
tissue uptake at 1 h ([1]; brain, 1 h post-injection, read-out: Brain uptake): 0.04 ± 0.01 %ID/g
tissue uptake at 1 h ([1]; fat, 1 h Blocked (co-injection of 2-PMPA, 0.5 mg), read-out: Fat uptake): 0.33 ± 0.1 %ID/g
tissue uptake at 1 h ([1]; fat, 1 h post-injection, read-out: Fat uptake): 0.22 ± 0.09 %ID/g
tissue uptake at 1 h ([1]; heart, 1 h Blocked (co-injection of 2-PMPA, 0.5 mg), read-out: Heart uptake): 0.45 ± 0.05 %ID/g
tissue uptake at 1 h ([1]; heart, 1 h post-injection, read-out: Heart uptake): 0.34 ± 0.07 %ID/g
tissue uptake at 1 h ([1]; kidneys, 1 h Blocked (co-injection of 2-PMPA, 0.5 mg), read-out: Kidneys uptake): 4.77 ± 0.3 %ID/g
tissue uptake at 1 h ([1]; kidneys, 1 h post-injection, read-out: Kidneys uptake): 19 ± 5.04 %ID/g
tissue uptake at 1 h ([1]; lacrimal glands, 1 h Blocked (co-injection of 2-PMPA, 0.5 mg), read-out: Lacrimal Glands uptake): 0.04 ± 0.02 %ID/g
tissue uptake at 1 h ([1]; lacrimal glands, 1 h post-injection, read-out: Lacrimal Glands uptake): 0.1 ± 0.06 %ID/g
tissue uptake at 1 h ([1]; large intestine, 1 h Blocked (co-injection of 2-PMPA, 0.5 mg), read-out: Large Intestine uptake): 0.26 ± 0.1 %ID/g
tissue uptake at 1 h ([1]; large intestine, 1 h post-injection, read-out: Large Intestine uptake): 0.2 ± 0.1 %ID/g
tissue uptake at 1 h ([1]; liver, 1 h Blocked (co-injection of 2-PMPA, 0.5 mg), read-out: Liver uptake): 0.67 ± 0.07 %ID/g
tissue uptake at 1 h ([1]; liver, 1 h post-injection, read-out: Liver uptake): 0.47 ± 0.06 %ID/g
tissue uptake at 1 h ([1]; lncap tumor, 1 h Blocked (co-injection of 2-PMPA, 0.5 mg), read-out: LNCaP Tumor uptake): 2.11 ± 0.02 %ID/g
tissue uptake at 1 h ([1]; lncap tumor, 1 h post-injection, read-out: LNCaP Tumor uptake): 8.01 ± 0.9 %ID/g
tissue uptake at 1 h ([1]; lungs, 1 h Blocked (co-injection of 2-PMPA, 0.5 mg), read-out: Lungs uptake): 1.22 ± 0.17 %ID/g
tissue uptake at 1 h ([1]; lungs, 1 h post-injection, read-out: Lungs uptake): 0.96 ± 0.19 %ID/g
tissue uptake at 1 h ([1]; muscle, 1 h Blocked (co-injection of 2-PMPA, 0.5 mg), read-out: Muscle uptake): 0.2 ± 0.02 %ID/g
tissue uptake at 1 h ([1]; muscle, 1 h post-injection, read-out: Muscle uptake): 0.34 ± 0.24 %ID/g
tissue uptake at 1 h ([1]; pancreas, 1 h Blocked (co-injection of 2-PMPA, 0.5 mg), read-out: Pancreas uptake): 0.32 ± 0.04 %ID/g
tissue uptake at 1 h ([1]; pancreas, 1 h post-injection, read-out: Pancreas uptake): 0.21 ± 0.05 %ID/g
tissue uptake at 1 h ([1]; salivary glands, 1 h Blocked (co-injection of 2-PMPA, 0.5 mg), read-out: Salivary Glands uptake): 0.49 ± 0.14 %ID/g
tissue uptake at 1 h ([1]; salivary glands, 1 h post-injection, read-out: Salivary Glands uptake): 0.52 ± 0.18 %ID/g
tissue uptake at 1 h ([1]; seminal gland, 1 h Blocked (co-injection of 2-PMPA, 0.5 mg), read-out: Seminal Gland uptake): 0.22 ± 0.06 %ID/g
tissue uptake at 1 h ([1]; seminal glands, 1 h post-injection, read-out: Seminal Glands uptake): 0.15 ± 0.04 %ID/g
tissue uptake at 1 h ([1]; small intestine, 1 h Blocked (co-injection of 2-PMPA, 0.5 mg), read-out: Small Intestine uptake): 2.4 ± 0.36 %ID/g
tissue uptake at 1 h ([1]; small intestine, 1 h post-injection, read-out: Small Intestine uptake): 2.01 ± 0.6 %ID/g
tissue uptake at 1 h ([1]; spleen, 1 h Blocked (co-injection of 2-PMPA, 0.5 mg), read-out: Spleen uptake): 0.31 ± 0.06 %ID/g
tissue uptake at 1 h ([1]; spleen, 1 h post-injection, read-out: Spleen uptake): 0.36 ± 0.09 %ID/g
tissue uptake at 1 h ([1]; stomach, 1 h Blocked (co-injection of 2-PMPA, 0.5 mg), read-out: Stomach uptake): 0.36 ± 0.15 %ID/g
tissue uptake at 1 h ([1]; stomach, 1 h post-injection, read-out: Stomach uptake): 0.19 ± 0.11 %ID/g
tissue uptake at 1 h ([1]; testes, 1 h Blocked (co-injection of 2-PMPA, 0.5 mg), read-out: Testes uptake): 0.41 ± 0.05 %ID/g
tissue uptake at 1 h ([1]; testes, 1 h post-injection, read-out: Testes uptake): 0.29 ± 0.05 %ID/g
tissue uptake at 1 h ([1]; thyroid, 1 h Blocked (co-injection of 2-PMPA, 0.5 mg), read-out: Thyroid uptake): 0.48 ± 0.03 %ID/g
tissue uptake at 1 h ([1]; thyroid, 1 h post-injection, read-out: Thyroid uptake): 0.38 ± 0.16 %ID/g
Tumor:Muscle uptake ratio (LNCaP tumor xenografts; [2]): 10.4 ± 1.31
Tumour:Blood uptake ratio (LNCaP tumor xenografts; [2]): 1.19 ± 0.12
Tumour:Bone uptake ratio (LNCaP tumor xenografts; [2]): 3.89 ± 1.05
Tumour:Kidney uptake ratio (LNCaP tumor xenografts; [2]): 0.44 ± 0.05
Tumor:Muscle uptake ratio (LNCaP tumor xenografts; 1 h post-injection): 35.7 ± 5.75
Tumour:Blood uptake ratio (LNCaP tumor xenografts; 1 h post-injection): 6.93 ± 1.54
Tumour:Bone uptake ratio (LNCaP tumor xenografts; 1 h post-injection): 14.6 ± 4.27
Tumour:Kidney uptake ratio (LNCaP tumor xenografts; 1 h post-injection): 0.59 ± 0.35
